ChEMBL document CHEMBL1143455 (Bioorg Med Chem Lett, 2005)

How the values were obtained:
[1] = target: T1, Prostaglandin G/H synthase 2 (Homo sapiens, UniProt P35354)
T1 sequence (P35354 whole entry): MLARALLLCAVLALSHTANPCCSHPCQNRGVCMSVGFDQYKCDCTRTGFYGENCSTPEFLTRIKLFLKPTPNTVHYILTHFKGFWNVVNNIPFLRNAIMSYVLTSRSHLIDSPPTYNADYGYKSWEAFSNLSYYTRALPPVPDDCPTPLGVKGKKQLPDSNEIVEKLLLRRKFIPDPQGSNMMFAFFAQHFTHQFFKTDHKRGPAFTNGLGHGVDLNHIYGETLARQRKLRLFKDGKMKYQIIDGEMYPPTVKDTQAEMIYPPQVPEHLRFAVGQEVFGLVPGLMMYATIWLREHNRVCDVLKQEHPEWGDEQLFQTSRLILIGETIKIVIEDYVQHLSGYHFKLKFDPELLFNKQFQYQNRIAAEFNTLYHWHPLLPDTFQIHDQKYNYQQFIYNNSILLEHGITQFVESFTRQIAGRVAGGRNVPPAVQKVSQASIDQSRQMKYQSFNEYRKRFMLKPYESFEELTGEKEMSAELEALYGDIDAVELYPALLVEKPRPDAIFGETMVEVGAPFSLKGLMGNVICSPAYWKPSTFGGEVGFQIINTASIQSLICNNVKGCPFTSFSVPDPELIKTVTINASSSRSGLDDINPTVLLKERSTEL
Description: Inhibitory activity against human recombinant cyclooxygenase 2

[2] = target: T2, Prostaglandin G/H synthase 2 (Mus musculus, UniProt Q05769); assay: Tested for prostaglandin E2 production as a function of COX-2 inhibition using endotoxin-treated murine RAW 264.7 macrophages; assay type: functional
T2 sequence (Q05769 whole entry): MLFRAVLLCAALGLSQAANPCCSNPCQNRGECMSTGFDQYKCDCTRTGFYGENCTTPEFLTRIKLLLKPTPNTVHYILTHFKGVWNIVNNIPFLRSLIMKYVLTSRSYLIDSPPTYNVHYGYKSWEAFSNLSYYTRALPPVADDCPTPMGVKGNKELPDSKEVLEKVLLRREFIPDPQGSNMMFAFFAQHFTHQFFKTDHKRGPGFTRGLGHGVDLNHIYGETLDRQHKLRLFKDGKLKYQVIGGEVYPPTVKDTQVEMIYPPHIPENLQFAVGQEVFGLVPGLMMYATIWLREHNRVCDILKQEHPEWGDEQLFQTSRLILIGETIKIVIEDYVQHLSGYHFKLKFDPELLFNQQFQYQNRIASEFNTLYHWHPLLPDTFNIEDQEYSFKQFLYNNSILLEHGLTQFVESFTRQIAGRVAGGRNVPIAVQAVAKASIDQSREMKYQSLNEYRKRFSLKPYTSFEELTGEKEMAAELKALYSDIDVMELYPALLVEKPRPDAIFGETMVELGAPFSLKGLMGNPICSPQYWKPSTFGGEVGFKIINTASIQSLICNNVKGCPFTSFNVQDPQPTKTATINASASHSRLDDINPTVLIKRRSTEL

SMILES	IC50 [1] [nM]	IC50 [2] [nM]
NS(=O)(=O)c1ccc(-c2c(-c3ccccc3)noc2CCF)cc1	8	2
Cc1onc(-c2ccccc2)c1-c1ccc(S(N)(=O)=O)c(F)c1		2
NS(=O)(=O)c1ccc(-c2c(-c3ccccc3)noc2CF)cc1		2
Cc1onc(-c2ccc(F)cc2)c1-c1ccc(S(N)(=O)=O)cc1		2
